These results are taken from patent US12605451B2, “Targeted plasma protein degradation” (Novartis AG, priority 2020, dated 2026).

The target in assay [1] is T1, FHR3 (Homo sapiens, UniProt Q02985).
T1 construct: Purified FHR3 with C-terminal biotinylated Avitag was used for the assay
T1 sequence (Q02985 19-330): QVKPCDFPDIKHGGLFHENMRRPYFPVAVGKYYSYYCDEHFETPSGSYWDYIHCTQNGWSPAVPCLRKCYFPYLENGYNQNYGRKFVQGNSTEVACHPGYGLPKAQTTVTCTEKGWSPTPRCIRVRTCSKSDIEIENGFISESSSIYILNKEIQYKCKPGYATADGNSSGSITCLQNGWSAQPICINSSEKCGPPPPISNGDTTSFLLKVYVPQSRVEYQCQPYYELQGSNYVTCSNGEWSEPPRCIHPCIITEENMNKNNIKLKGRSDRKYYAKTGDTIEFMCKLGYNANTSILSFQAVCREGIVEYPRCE
The assay can be described thus: SPR binding to biotinylated FHR3 (Proteon XPR36). As to conditions: Bifunctional Compound. As to the method:
SPR was used to obtain the binding data for FHR3 receptor ligands compounds (C12), (C13), (C14), (C15) and (C16), either alone or as part of the bifunctional compounds (BFC13), (BFC14), (BFC15), (BFC16) and (BFC17), respectively.
SPR Binding experiments were performed on a Proteon XPR36 instrument (Bio-Rad Laboratories). Purified FHR3 with C-terminal biotinylated Avitag was used for the assay. Biotinylated FHR3 was incubated with fivefold molar excess of bifunctional compounds (BFC13), (BFC14), (BFC15), (BFC16) or (BFC17), or compounds (C12), (C13), (C14), (C15) or (C16), and immobilized onto a Neutravidin coated sensor chip. (NLC chip, Bio-Rad Laboratories, Inc). […]
To perform sandwich SPR binding assays, His-ASGPR1 (62-291) protein stocks were diluted with running buffer to a desired concentration. […] Sensorgrams were recorded for association and dissociation phases. All sensorgrams were processed by subtracting the binding response recorded from a blank control surfaces (or interspot surfaces), followed by subtracting buffer blank injections from the reaction surface. […]
On the technique in general: Surface plasmon resonance follows binding to a sensor surface in real time, without labels.

In assay [2] the target is T2, human ASGPR1 (Homo sapiens, UniProt P07306).
T2 construct: Recombinant extracellular domain of human ASGPR1 with N-terminal biotinylated Avitag
T2 sequence (P07306 62-291 limits assumed): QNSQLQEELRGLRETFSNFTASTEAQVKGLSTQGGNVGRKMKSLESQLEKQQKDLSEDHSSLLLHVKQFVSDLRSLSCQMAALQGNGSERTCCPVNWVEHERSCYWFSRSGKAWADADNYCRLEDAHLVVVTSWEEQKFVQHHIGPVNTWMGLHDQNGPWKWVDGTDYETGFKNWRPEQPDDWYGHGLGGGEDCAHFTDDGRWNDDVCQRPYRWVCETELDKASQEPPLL
The assay can be described thus: ASGPR1 SPR direct binding (Biacore, SA chip). As to conditions: Bifunctional Compound (FHR3 series), Table 7, read-out: ASGRR KD. As for the experimental part:
SPR was used to obtain the binding data for ASGP receptor ligand compound (int-CC2), either alone or as part of the bifunctional compounds (BFC-13), (BFC-15) and (BFC16).
(§1) ASGPR1 SPR experiments were performed on either Biacore T200 or Biacore 8K. The assay was optimized for Biacore (Streptavidin) SA chip in running buffer consisting of 20 mM HEPES, 300 mM NaCl, 2 mM CaCl2, 0.01% tween-20, 2% DMSO, pH 7.4. Recombinant extracellular domain of human ASGPR1 with N-terminal biotinylated Avitag was diluted to 20 μg/mL in running buffer, and immobilized onto SA chip after it was preconditioned with at least four 60-second injections at 30 uL/min of 1 M NaCl/40 mM NaOH solution. Protein immobilization level varied from 500 RU to 3500 RU dependent on analytes' molecular weight, for targeted Rmax of 30 RUs. Direct binding of analytes to ASGPR1 was observed when a dose response titration of analytes in 2% DMSO was flown over the immobilized protein. Data analysis was done on either Biacore T200 Evaluation Software or Biacore Insight Evaluation Software.
SPR was used to obtain the binding data for ASGP receptor ligand compounds (int-CC2), either alone or as part of the bifunctional compounds (BFC1).
as §1, with “Biacore” for “Biacore (Streptavidin)”

By Kd is commonly meant the equilibrium constant for the complex coming apart. For the compound `CC(=O)N[C@H]1[C@H](OCCCCC(=O)NCCCNC(=O)CCOCC(COCCC(=O)NCCCNC(=O)CCCCO[C@@H]2O[C@H](CO)[C@H](O)[C@H](O)[C@H]2NC(C)=O)(COCCC(=O)NCCCNC(=O)CCCCO[C@@H]2O[C@H](CO)[C@H](O)[C@H](O)[C@H]2NC(C)=O)NC(=O)CCOCCOCCOCCOCCOCCOCCOCCOCCOCCC(=O)NCCCC[C@@H]2NC(=O)[C@H](CCCNC(=N)N)NC(=O)[C@H](C)N(C)C(=O)[C@H](Cc3c[nH]c4ccccc34)NC(=O)[C@H](Cc3c[nH]cn3)NC(=O)[C@H](CC(C)C)NC(=O)[C@H](CO)NC(=O)[C@H](C)N(C)C(=O)[C@H](Cc3ccccc3)N(C)C(=O)[C@H](Cc3ccccc3)NC(=O)CSC[C@@H](C(=O)NCC(N)=O)NC(=O)[C@H](CCCNC(=N)N)NC(=O)[C@H](CC(=O)O)NC2=O)O[C@H](CO)[C@H](O)[C@@H]1O` [BFC-16], the Kd in assay [1] worked out at 26 nM; in assay [2], 0.32 nM.
